# Experimental data as given in publication PMC10720383, “Acetylcholinesterase Inhibition in Rats and Humans Following Acute Fenitrothion Exposure Predicted by Physiologically Based Kinetic Modeling-Facilitated Quantitative In Vitro to In Vivo Extrapolation” (Environmental Science & Technology, 2023).
# Key:
# erythrocyte AChE [1] = assay: PBK modeling-facilitated QIVIVE and BMD analysis, human
# Method: For toxicity prediction, the maximum blood FNO concentration was used as a dose metric relating AChE inhibition to acute FNT exposure (see section 3.3). Since the in vitro AChE inhibition under increasing FNO concentrations was tested in rat and human blood, these nominal concentrations could be used directly as the biological effective concentrations (in vivo maximum blood FNO concentrations), and no extra correction for differences in in vitro and in vivo protein binding was deemed necessary. Then the corresponding FNT dose levels resulting in these in vivo concentrations were derived via PBK modeling-facilitated reverse dosimetry. In doing so, the in vitro concentration–response relationship was converted to the predicted in vivo dose-dependent erythrocyte AChE inhibition, which was then compared to available in vivo toxicity data in rats and humans.[8],[39]
# BMD modeling was used to derive POD values from the predicted in vivo dose-dependent data sets for rats and humans. A BMD value resulting in a 10% benchmark response (BMR) change with lower 95% confidence limit was defined as BMDL10, and the obtained values for rats and humans were evaluated against the reported NOAELs.[1],[11]−[13] Details and results of BMD analysis are provided in the Supporting Information. […]
# BMD modeling was used to derive POD values from the predicted in vivo dose-response curves for rats and humans. The EFSA web-tool (https://efsa.openanalytics.eu/) integrated with the R package PROAST (version 70.0) developed by the Dutch National Institute for Public Health and the Environment (RIVM) was used for the BMD analysis. A BMD value resulting in a 10% benchmark response (BMR) change with lower 95% confidence limit was defined as BMDL10. Briefly, the continuous data were fitted to a set of models (Exponential, Hill, Inverse Exponential, and Log-Normal family models), and all fitted models excluding the FULL and NULL models were used for model averaging via a weighted average model. […]
# erythrocyte AChE [2] = assay: Reported NOAELs from in vivo rat toxicity studies
# Method: Acute exposure to FNT will cause neurotoxic symptoms in mammals due to AChE inhibition and subsequent acetylcholine accumulation at synaptic clefts.[10] Several no-observed-adverse-effect levels (NOAELs) derived from different in vivo rat or human toxicity data sets have been reported by different organizations, even though the same endpoint (erythrocyte AChE inhibition) was chosen. Specifically, NOAELs of 0.25 and 1.3 mg/kg BW for rats have been set by the US Environmental Protection Agency (US EPA)[11] and European Food Safety Authority (EFSA),[1] respectively, and NOAELs of 0.33 and 0.36 mg/kg BW for humans have been derived by Australian Pesticides and Veterinary Medicines Authority (APVMA)[12] and the Joint Food and Agriculture Organization of the United Nations/World Health Organization Meeting on Pesticide Residues (JMPR),[13] respectively. […]
# A NOAEL of 1.3 mg/kg BW was reported by EFSA[1] from a 90 day rat study[44] considering the impaired body weight gain and reduction in erythrocyte and brain cholinesterase activity as the critical effects. The US EPA[11] reported a 5.2-fold lower NOAEL (0.25 mg/kg BW) based on the measured erythrocyte AChE inhibition after 2 weeks of FNT dosing in a 92 week rat study.[45] […]
# [3] = humans, oral exposure; cited from earlier work
smiles,measurement,setting,value
"COP(=S)(OC)Oc1ccc([N+](=O)[O-])c(C)c1 [FNT, O,O-dimethyl O-4-nitro-m-tolyl phosphorothioate]","predicted POD for humans, fold lower than that of rats",erythrocyte AChE [1]; BMDL10 rat vs human,5 fold
same,predicted BMDL10 (POD),"erythrocyte AChE [1]; human, erythrocyte AChE inhibition, acute oral FNT exposure, 10% BMR, lower 95% confidence limit",0.26 mg/kg BW
same,BMDU10,"erythrocyte AChE [1]; human, erythrocyte AChE inhibition, acute oral FNT exposure, upper confidence limit",0.66 mg/kg BW
same,"US EPA rat NOAEL, fold lower than EFSA rat NOAEL",erythrocyte AChE [2],5.2 fold
same,fraction of the dose absorbed (Fa),[3],0.7
